Here are results for one compound from publication PMC7393338 (Acta Pharmacologica Sinica, 2020).

The target of one series is SARS-CoV-2 PLpro (Severe acute respiratory syndrome coronavirus 2, UniProt P0DTD1). The experiment in a line: biochemical. To be noted: read-out: PLpro Inhibition (%).
For series [1] the following is noted: intratracheal administration versus other routes, rats.

Usually inhibition stands for the change of the read-out against control, counted positive when it falls. Take `O=c1cc(-c2ccccc2)oc2cc(O)c(O)c(O)c12` [Baicalein]: the inhibition at 50 µM at SARS-CoV-2 PLpro was below 50%. The “target tissue (lung) distribution” value in series [1] is “significantly increase their target tissue distribution”.
